Measurements: PubChem BioAssay AID1963844 (Molecular Pharmacology Branch, DTP, NCI, 2024)

Test system: 422866-222-R5-J1-PDC complex spheroid viability
Test: Anticancer human tumor 422866-222-R5-J1-PDC patient-derived pancreatic adenocarcinoma cell line growth inhibition [POLQ]
Conditions: for IC50: curve of first compound; for viability, T/C: stronger effect = lower value
Method: Multicellular complex tumor spheroid response to Polymerase (POL) inhibitors (novobiocin, ART-558, RP6685) in combination with a variety of drugs and investigational agents in selected tumor cell lines
The POL inhibitors (novobiocin, ART-558, and RP6685) were evaluated both individually and in combination with standard of care and investigational anticancer small molecules within a complex spheroid model of solid tumors. . Complex spheroids include a stromal component modeled by human endothelial cells (HUVEC) and fibroblasts modeled by human mesenchymal stem cells (MSCs). The concentration ranges selected for each drug and investigational agent were based upon clinically achievable concentrations if the clinical Cmax of the agent was known.
Compounds. The drugs and investigational agents: novobiocin (NSC847541), ART-558 (NSC835418), RP-6685 (NSC848927), peposertib (NSC802822), ceralasertib (NSC780249), elimusertib (NSC800525), camonsertib (NSC841442), AZD-1390 (NSC803789), olaparib (NSC753686), talazoparib (NSC767125), rucaparib (NSC756644), sotorasib (NSC818433), MRTX-1133 (NSC836407), SN-38 (NSC673596), topotecan (NSC609699), epotoside (NSC141540), doxorubicin (NSC123127), gemcitabine (NSC613327), 5-fluorouracil (NSC19893), paclitaxel (NSC125973), vemurafenib (NSC761431), MSA-2 (NSC828583), SN-011 (NSC837082), adavosertib (NSC754352), prexasertib (NSC758257), carboplatin (NSC241240) and oxaliplatin (NSC266046), were obtained from the National Cancer Institute (NCI) Developmental Therapeutics Program Chemical Repository (21). The FDA-approved anticancer drug set is available from the Developmental Therapeutics Program at https://dtp.cancer.gov/organization/dscb/obtaining/. […] The stock solutions were prepared in dimethyl sulfoxide (DMSO, Sigma-Aldrich, St. Louis, MO, cat. D2650), except for the platinum compounds which were prepared in saline (Quality Biological, Gaithersburg, MD, cat. 114-055-101), at 800-fold the tested concentration and stored at -70 degrees C prior to their use. All drugs and investigational agents were tested over a range starting from a high concentration at or near the clinical Cmax and decreasing in half-log increments. If the clinical Cmax for an agent had not been determined, the highest concentration tested was 10 microM, except for SN-38, which was tested at a high concentration of 1 microM.
Cell Culture. All cells were maintained in an incubator at 37 degrees C and 5% CO2 with 95% humidity. The PDC lines were cultured according to standard operating procedures established by the NCI PDMR (https://pdmr.cancer.gov). Table 3 of the manuscript, lists the cell lines along with the number of the three cell types plated to form the mct-spheroids and media for tumor cell growth. After thawing, all PDC lines, except 997537-175-T-J1-PDC and 415267-285-R-J2-PDC, were cultured in Matrigel-coated flasks prepared with a working solution of 1X Ham's F-12 nutrient mix, without supplementation (Thermo Fisher Scientific, cat. 11765054), 100 U/mL penicillin-streptomycin (Thermo Fisher Scientific, cat. 15140122), and 2.5% Matrigel (Corning Inc., Corning, NY, cat. 354248) for the first three passages. The two PDC lines 997537-175-T-J1-PDC and 415267-285-R-J2-PDC were cultured on uncoated flasks. The 857933-349-R-J2-PDC line was cultured in 6C/Colon 1B media containing advanced DMEM/F-12 (Thermo Fisher Scientific, cat. 12634028), 10 mM HEPES (Thermo Fisher Scientific, cat. 15630080), 1X GlutaMAX supplement (Thermo Fisher Scientific, cat. 35050061), 0.1 mg/mL primocin (InvivoGen, San Diego, CA, cat. ant-pm-2), 10% defined fetal bovine serum, heat inactivated (HyClone Laboratories Inc., Logan, UT, cat. SH30070.03HI), 50% L-WRN conditioned media (ATCC, cat. CRL-3276), 1.25 mM N-Acetyl-L-cysteine (Sigma-Aldrich, cat. A9165), 10 mM nicotinamide (Sigma-Aldrich, cat. N0636), 1X B-27 supplement (Thermo Fisher Scientific, cat. 17504044), 1X N-2 supplement (Thermo Fisher Scientific, cat. […]
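Note: spheroids exposed to compounds for one week before readout.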
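Throughout, for viability, T/C: percent of DMSO vehicle wells luminescence so 100% = untreated viability.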

`COc1cccc(OCCCN)c1-c1cc(Nc2cnc(C#N)cn2)n[nH]1` + Nc1ccc(C#CCN(C(=O)Cc2ncc(C(F)(F)F)cc2C(F)(F)F)c2ccc(F)cc2)nn1 showed an IC50 (second compound 0.0316 µM) of 7.22 nM, an IC50 (second compound 0.1 µM) of 6.75 nM and an IC50 (second compound 0.316 µM) of 5.8 nM. It also gave an IC50 (second compound 1 µM) of 5.89 nM, an IC50 (second compound 3.16 µM) of 5.87 nM and an IC50 (second compound 10 µM) of 7.34 nM. For the same compound, the viability, T/C (second compound 0.0316 µM, first compound 0.00316 µM) was 82.4%, the viability, T/C (second compound 0.0316 µM, first compound 0.01 µM) was 37.4% and the viability, T/C (second compound 0.0316 µM, first compound 0.0316 µM) was 33.4%. For the same compound, the viability, T/C (second compound 0.0316 µM, first compound 0.1 µM) was 30.5%, the viability, T/C (second compound 0.0316 µM, first compound 0.316 µM) was 35.9% and the viability, T/C (second compound 0.0316 µM, first compound 1 µM) was 44.1%. The viability, T/C (second compound 0.1 µM, first compound 0.00316 µM) was 62.6%, the viability, T/C (second compound 0.1 µM, first compound 0.01 µM) was 45.9% and the viability, T/C (second compound 0.1 µM, first compound 0.0316 µM) was 33.6%. The viability, T/C (second compound 0.1 µM, first compound 0.1 µM) was 32.8%, the viability, T/C (second compound 0.1 µM, first compound 0.316 µM) was 36.8% and the viability, T/C (second compound 0.1 µM, first compound 1 µM) was 54.3%. The viability, T/C (second compound 0.316 µM, first compound 0.00316 µM) was 60.3%, the viability, T/C (second compound 0.316 µM, first compound 0.01 µM) was 40.4% and the viability, T/C (second compound 0.316 µM, first compound 0.0316 µM) was 36.1%. It also gave a viability, T/C (second compound 0.316 µM, first compound 0.1 µM) of 38.4%, a viability, T/C (second compound 0.316 µM, first compound 0.316 µM) of 27.1% and a viability, T/C (second compound 0.316 µM, first compound 1 µM) of 38%. It also gave a viability, T/C (second compound 1 µM, first compound 0.00316 µM) of 68.9%, a viability, T/C (second compound 1 µM, first compound 0.01 µM) of 33.9% and a viability, T/C (second compound 1 µM, first compound 0.0316 µM) of 35%. For the same compound, the viability, T/C (second compound 1 µM, first compound 0.1 µM) was 38.6%, the viability, T/C (second compound 1 µM, first compound 0.316 µM) was 30.6% and the viability, T/C (second compound 1 µM, first compound 1 µM) was 29.4%. For the same compound, the viability, T/C (second compound 3.16 µM, first compound 0.00316 µM) was 59.2%, the viability, T/C (second compound 3.16 µM, first compound 0.01 µM) was 42.8% and the viability, T/C (second compound 3.16 µM, first compound 0.0316 µM) was 38.5%. The viability, T/C (second compound 3.16 µM, first compound 0.1 µM) was 29%, the viability, T/C (second compound 3.16 µM, first compound 0.316 µM) was 32.2% and the viability, T/C (second compound 3.16 µM, first compound 1 µM) was 44.8%. The viability, T/C (second compound 10 µM, first compound 0.00316 µM) was 76.1%, the viability, T/C (second compound 10 µM, first compound 0.01 µM) was 40.1% and the viability, T/C (second compound 10 µM, first compound 0.0316 µM) was 37.4%. For the same compound, the viability, T/C (second compound 10 µM, first compound 0.1 µM) was 36.5%, the viability, T/C (second compound 10 µM, first compound 0.316 µM) was 29% and the viability, T/C (second compound 10 µM, first compound 1 µM) was 38.6%.
